These results are taken from BindingDB's records for PubMed 20126400 (University of Oklahoma, 2010).

Common to all, as to experiment: Ray2010 Assay 74
The target of test [1] is 5-hydroxytryptamine receptor 6 (Homo sapiens, UniProt P50406). The source says:
(§1) Table S2 shows raw Ki data for the current study combined with data collected from the literature for the ten additional compounds.

Test [2] deals with Sodium-dependent dopamine transporter (Homo sapiens, UniProt Q01959).
Description: as §1

The target of test [3] is 5-hydroxytryptamine receptor 1E (Homo sapiens, UniProt P28566).
Description: as §1

Test [4] has as its target T1, Alpha-1A adrenergic receptor (Homo sapiens, UniProt P35348).
T1 sequence (P35348 whole entry): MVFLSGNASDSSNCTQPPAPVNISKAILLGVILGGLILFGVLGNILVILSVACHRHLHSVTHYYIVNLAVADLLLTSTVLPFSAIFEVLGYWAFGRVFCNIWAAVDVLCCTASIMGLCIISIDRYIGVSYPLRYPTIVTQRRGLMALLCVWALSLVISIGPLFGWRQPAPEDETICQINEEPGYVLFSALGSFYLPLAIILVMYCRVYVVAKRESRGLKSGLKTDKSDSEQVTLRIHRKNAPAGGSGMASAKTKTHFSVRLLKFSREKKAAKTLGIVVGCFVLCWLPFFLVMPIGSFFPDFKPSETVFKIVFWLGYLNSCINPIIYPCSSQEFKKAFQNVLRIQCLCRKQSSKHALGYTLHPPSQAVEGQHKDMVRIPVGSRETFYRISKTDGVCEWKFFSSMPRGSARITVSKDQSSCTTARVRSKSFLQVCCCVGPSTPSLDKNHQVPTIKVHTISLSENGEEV
Description: as §1

The target of test [5] is Beta-1 adrenergic receptor (Homo sapiens, UniProt P08588).
Description: as §1

Test [6] concerns the target T2, Alpha-2A adrenergic receptor (Homo sapiens, UniProt P08913).
T2 sequence (P08913 whole entry): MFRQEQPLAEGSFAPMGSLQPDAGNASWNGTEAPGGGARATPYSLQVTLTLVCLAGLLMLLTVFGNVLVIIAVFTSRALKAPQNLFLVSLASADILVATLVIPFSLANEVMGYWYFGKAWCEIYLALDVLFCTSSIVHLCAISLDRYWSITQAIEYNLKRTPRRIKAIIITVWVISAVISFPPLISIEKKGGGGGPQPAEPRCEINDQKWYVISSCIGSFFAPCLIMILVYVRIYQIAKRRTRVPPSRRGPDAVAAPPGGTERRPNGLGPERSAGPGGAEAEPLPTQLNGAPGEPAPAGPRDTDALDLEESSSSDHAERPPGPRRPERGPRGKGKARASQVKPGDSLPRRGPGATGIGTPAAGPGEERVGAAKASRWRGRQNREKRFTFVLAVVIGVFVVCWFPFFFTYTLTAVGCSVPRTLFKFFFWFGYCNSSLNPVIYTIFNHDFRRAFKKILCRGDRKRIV
Description: as §1

The target of test [7] is T3, Gamma-aminobutyric acid receptor subunit alpha-1 (Homo sapiens, UniProt P14867).
T3 sequence (P14867 whole entry): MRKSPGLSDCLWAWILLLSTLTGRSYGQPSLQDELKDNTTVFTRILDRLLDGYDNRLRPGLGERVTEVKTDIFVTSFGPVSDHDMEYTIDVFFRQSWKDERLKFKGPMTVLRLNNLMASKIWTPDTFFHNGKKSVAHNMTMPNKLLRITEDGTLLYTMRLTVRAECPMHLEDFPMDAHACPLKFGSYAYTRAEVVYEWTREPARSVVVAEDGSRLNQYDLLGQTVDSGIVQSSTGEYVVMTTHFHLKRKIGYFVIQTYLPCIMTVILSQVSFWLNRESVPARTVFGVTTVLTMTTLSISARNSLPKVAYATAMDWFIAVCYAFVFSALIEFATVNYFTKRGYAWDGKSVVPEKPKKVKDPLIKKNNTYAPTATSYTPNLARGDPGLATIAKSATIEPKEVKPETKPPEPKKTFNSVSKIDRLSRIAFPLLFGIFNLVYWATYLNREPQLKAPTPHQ
Description: as §1

Test [8] has as its target Histamine H2 receptor (Homo sapiens, UniProt P25021).
Description: as §1

Test [9] has as its target T4, Muscarinic acetylcholine receptor M5 (Homo sapiens, UniProt P08912).
T4 sequence (P08912 whole entry): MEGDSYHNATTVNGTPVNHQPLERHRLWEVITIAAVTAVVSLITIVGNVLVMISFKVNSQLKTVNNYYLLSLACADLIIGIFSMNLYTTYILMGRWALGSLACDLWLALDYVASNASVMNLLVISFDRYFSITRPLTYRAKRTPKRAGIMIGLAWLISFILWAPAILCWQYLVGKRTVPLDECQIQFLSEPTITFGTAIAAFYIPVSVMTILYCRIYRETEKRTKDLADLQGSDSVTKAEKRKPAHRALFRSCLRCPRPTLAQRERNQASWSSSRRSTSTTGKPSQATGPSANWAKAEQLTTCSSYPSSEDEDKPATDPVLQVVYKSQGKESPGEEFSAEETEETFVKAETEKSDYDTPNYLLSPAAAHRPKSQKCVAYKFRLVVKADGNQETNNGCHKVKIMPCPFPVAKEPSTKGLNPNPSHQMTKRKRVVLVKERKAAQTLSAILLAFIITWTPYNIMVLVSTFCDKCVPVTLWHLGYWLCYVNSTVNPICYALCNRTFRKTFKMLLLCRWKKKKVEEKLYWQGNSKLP
Description: as §1

In test [10] the target is 5-hydroxytryptamine receptor 2B (Homo sapiens, UniProt P41595).
Description: as §1

In test [11] the target is T5, 5-hydroxytryptamine receptor 1A (Homo sapiens, UniProt P08908).
T5 sequence (P08908 whole entry): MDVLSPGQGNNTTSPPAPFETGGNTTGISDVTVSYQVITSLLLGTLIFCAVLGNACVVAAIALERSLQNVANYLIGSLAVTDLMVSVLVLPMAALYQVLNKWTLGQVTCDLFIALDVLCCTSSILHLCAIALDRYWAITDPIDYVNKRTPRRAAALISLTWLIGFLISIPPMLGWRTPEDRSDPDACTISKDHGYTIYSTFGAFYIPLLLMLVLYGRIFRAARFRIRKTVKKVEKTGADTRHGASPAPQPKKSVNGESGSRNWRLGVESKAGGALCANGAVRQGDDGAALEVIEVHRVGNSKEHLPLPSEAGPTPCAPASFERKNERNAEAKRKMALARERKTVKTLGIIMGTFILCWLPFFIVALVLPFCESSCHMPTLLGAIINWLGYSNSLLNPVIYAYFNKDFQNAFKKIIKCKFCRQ
Description: as §1

The target in test [12] is D(1A) dopamine receptor (Homo sapiens, UniProt P21728).
Description: as §1

For test [13], the target named is 5-hydroxytryptamine receptor 2A (Homo sapiens, UniProt P28223).
Description: as §1

For test [14], the target named is Kappa-type opioid receptor (Homo sapiens, UniProt P41145).
Description: as §1

Sodium-dependent dopamine transporter, sequence (Q01959 whole entry): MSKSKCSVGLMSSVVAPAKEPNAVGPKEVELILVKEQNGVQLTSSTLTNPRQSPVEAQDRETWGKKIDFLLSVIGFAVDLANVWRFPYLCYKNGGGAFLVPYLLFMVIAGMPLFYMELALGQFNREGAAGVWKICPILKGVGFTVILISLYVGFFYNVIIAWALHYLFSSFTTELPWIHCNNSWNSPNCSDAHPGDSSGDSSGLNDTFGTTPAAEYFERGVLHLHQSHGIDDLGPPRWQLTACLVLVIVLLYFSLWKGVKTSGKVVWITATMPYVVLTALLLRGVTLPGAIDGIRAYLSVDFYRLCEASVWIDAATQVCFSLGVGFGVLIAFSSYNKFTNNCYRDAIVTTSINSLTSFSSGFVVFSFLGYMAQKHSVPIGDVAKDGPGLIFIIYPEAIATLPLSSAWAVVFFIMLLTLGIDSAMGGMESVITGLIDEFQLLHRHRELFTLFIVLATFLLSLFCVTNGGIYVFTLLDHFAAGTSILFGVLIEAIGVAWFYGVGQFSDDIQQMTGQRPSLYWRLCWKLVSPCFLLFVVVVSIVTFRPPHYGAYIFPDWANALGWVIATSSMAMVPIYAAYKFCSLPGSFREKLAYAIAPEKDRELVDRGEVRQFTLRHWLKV
5-hydroxytryptamine receptor 2A, sequence (P28223 whole entry): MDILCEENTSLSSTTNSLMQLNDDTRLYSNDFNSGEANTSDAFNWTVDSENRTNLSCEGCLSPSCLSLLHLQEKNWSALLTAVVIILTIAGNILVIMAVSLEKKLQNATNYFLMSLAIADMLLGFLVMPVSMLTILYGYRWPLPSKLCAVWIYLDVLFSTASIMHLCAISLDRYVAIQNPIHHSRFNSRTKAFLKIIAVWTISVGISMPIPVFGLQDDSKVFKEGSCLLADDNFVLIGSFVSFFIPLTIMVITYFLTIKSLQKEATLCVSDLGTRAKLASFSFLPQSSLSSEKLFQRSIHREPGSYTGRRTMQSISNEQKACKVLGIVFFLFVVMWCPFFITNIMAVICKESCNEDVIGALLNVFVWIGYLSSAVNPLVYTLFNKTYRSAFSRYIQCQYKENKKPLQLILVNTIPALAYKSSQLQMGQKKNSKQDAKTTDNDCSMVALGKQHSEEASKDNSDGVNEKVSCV
D(1A) dopamine receptor, sequence (P21728 whole entry): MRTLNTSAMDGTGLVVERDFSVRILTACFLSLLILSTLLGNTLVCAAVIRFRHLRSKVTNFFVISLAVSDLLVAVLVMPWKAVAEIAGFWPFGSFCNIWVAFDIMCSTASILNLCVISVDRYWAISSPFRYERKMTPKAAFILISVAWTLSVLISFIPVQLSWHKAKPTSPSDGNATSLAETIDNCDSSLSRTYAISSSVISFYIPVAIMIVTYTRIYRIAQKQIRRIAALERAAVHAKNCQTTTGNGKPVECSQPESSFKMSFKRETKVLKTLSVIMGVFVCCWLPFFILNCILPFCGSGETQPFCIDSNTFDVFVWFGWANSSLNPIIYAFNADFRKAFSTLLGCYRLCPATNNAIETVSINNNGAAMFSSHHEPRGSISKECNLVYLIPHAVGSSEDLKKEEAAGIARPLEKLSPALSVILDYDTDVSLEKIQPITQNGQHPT
5-hydroxytryptamine receptor 2B, sequence (P41595 whole entry): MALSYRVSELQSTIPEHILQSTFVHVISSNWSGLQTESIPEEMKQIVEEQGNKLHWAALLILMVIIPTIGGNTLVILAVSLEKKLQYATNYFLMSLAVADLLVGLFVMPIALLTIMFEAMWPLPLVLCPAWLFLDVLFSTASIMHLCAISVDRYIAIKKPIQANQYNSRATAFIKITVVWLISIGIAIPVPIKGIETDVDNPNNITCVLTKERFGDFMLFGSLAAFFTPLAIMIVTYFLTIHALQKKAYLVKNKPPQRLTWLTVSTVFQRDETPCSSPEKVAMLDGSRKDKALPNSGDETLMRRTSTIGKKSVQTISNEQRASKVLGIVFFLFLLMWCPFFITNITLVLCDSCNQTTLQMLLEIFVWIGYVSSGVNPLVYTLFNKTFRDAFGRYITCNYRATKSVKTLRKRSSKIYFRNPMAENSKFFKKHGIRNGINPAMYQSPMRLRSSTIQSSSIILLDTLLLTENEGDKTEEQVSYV
5-hydroxytryptamine receptor 1E, sequence (P28566 whole entry): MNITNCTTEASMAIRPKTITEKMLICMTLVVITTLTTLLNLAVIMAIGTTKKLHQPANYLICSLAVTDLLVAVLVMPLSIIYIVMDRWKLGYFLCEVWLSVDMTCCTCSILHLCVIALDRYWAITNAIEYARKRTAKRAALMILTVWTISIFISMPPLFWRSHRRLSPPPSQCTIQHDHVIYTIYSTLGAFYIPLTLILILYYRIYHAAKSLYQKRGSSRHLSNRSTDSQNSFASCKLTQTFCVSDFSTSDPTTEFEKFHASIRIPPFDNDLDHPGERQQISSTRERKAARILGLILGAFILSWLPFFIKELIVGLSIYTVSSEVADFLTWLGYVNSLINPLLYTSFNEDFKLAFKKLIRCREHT
Kappa-type opioid receptor, sequence (P41145 whole entry): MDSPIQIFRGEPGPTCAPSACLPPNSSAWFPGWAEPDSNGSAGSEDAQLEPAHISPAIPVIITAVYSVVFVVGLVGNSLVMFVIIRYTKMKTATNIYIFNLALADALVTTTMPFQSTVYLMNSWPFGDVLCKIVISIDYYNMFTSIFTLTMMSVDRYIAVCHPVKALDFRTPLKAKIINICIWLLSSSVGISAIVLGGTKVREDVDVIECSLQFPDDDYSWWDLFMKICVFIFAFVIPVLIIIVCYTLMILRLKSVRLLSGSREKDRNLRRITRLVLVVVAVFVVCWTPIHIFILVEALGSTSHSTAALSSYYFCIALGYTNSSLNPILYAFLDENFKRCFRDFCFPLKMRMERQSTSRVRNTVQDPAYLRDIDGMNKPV
5-hydroxytryptamine receptor 6, sequence (P50406 whole entry): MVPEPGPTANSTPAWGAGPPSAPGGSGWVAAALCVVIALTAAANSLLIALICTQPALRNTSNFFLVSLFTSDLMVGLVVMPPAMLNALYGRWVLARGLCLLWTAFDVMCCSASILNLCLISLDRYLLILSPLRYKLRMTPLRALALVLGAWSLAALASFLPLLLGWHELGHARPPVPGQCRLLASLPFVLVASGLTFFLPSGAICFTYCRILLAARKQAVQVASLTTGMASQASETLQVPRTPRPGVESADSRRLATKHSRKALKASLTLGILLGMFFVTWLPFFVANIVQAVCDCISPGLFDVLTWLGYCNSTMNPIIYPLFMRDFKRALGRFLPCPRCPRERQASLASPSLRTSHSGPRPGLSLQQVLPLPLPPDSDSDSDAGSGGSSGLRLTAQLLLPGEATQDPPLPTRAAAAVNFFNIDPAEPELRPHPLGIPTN
Histamine H2 receptor, sequence (P25021 whole entry): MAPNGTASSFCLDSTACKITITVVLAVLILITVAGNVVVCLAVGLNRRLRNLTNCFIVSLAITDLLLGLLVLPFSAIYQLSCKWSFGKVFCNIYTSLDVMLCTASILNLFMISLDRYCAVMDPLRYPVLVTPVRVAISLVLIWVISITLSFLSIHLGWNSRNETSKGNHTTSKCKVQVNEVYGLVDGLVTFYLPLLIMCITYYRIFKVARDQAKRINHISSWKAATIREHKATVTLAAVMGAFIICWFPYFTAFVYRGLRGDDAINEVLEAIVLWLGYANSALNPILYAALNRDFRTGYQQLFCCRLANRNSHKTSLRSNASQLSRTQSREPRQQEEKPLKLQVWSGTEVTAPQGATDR
Beta-1 adrenergic receptor, sequence (P08588 whole entry): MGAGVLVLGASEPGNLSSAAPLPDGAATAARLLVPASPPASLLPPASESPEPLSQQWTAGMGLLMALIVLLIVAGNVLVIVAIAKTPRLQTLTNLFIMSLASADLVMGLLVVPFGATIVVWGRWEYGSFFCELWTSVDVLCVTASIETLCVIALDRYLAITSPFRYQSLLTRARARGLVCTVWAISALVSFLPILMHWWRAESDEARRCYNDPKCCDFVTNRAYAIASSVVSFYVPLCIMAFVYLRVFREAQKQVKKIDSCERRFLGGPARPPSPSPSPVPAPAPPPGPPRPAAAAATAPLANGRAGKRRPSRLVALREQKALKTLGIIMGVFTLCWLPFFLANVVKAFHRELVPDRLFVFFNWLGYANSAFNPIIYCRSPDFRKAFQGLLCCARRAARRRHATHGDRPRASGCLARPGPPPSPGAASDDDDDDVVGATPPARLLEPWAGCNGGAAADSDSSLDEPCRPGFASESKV

`CCSc1cc(OC)c(CC(N)CC)cc1OC` (stereo unspecified) [1-(4-Ethylsulfanyl-2,5-dimethoxy-benzyl)-propylamine]: the Ki in [1] was more than 10000 nM; in test [2] it was more than 10 µM; in [3], 9880 nM; in [4], more than 10 µM; in [5] it was more than 10 µM; in [6] it was more than 10000 nM. In addition, the Ki in [7] was more than 10 µM; in test [8], more than 10 µM; in test [9] it was more than 10 µM; in [10], 58.1 nM; in test [11], 5340 nM; in test [12], more than 10 µM. The Ki in test [13] is 274 nM; in test [14], more than 10 µM.
In the case of `NCCc1c2c(c(Br)c3c1OCC3)OCC2` [2-(8-Bromo-2,3,6,7-tetrahydro-benzo[1,2-b;4,5-b']difuran-4-yl)-ethylamine], the Ki was 150 nM in test [1]; more than 10 µM in [2]; 110 nM in [3]; more than 10 µM in test [4]; more than 10 µM in test [5]; 145 nM in [6]. Also, the Ki in [7] was more than 10 µM; in [8] it was more than 10 µM; in test [9] it was 0.873 µM; in test [10], 0.9 nM; in [11], 147 nM; in test [12], 4.96 µM. In addition, the Ki in [13] is 11.6 nM; in test [14] it was more than 10 µM.
On to `CCSc1cc(OC)c(CCN)cc1OC` [2C-T-2], for which the Ki is 1360 nM in test [1]; more than 10 µM in [2]; 415 nM in [3]; more than 10 µM in test [4]; 9.2 µM in [5]; 730 nM in test [6]. Moreover, the Ki in [7] is more than 10 µM; in test [8], more than 10 µM; in [9] it was 1.5 µM; in test [10] it was 6 nM; in test [11], 381 nM; in test [12], more than 10 µM. Besides, the Ki was 39.9 nM in [13] and more than 10 µM in test [14].
Take `COc1ccc2[nH]cc(CCN(C)C(C)C)c2c1` [5-meo-mipt]: the Ki in [1] was 130 nM; in [2], more than 10 µM; in test [3], 3500 nM; in [4], more than 10 µM; in test [5] it was more than 10 µM; in [6] it was 175 nM. The Ki in [7] was more than 10 µM; in [8], more than 10 µM; in test [9] it was more than 10 µM; in test [10] it was 58.5 nM; in test [11], 12.3 nM; in [12], more than 10 µM. For the same molecule, the Ki is 448 nM in test [13] and more than 10 µM in [14].
`COc1cc(CC(C)N)c(OC)cc1C` (stereo not drawn) [(+/-)2-(2,5-Dimethoxy-4-methyl-phenyl)-1-methyl-ethylamine]: the Ki in test [1] is 8150 nM; in test [2], more than 10 µM; in test [3] it was 3540 nM; in test [4] it was 3.22 µM; in test [5], more than 10 µM; in [6], 580 nM. Moreover, the Ki is more than 10 µM in [7]; more than 10 µM in test [8]; more than 10 µM in test [9]; 11.7 nM in test [10]; 3660 nM in [11]; more than 10 µM in test [12]. Also, the figures for the Ki in test [13] and in test [14] were 507 nM and more than 10 µM, respectively.
Regarding `CC(C)N(CCc1c[nH]c2ccccc12)C(C)C` [dipt], the Ki is more than 10000 nM in test [1]; more than 10 µM in test [2]; more than 10000 nM in test [3]; more than 10 µM in [4]; more than 10 µM in test [5]; more than 10000 nM in test [6]. Further, the Ki in test [7] is more than 10 µM; in test [8], more than 10 µM; in test [9], more than 10 µM; in test [10], 398 nM; in [11], 120 nM; in test [12], more than 10 µM. Besides, the Ki in test [13] was more than 10000 nM; in test [14] it was more than 10 µM.
With `CCCN(CCC)CCc1c[nH]c2ccccc12` [dpt], the Ki in [1] is 4540 nM; in test [2], 1.5 µM; in test [3] it was 2340 nM; in [4] it was 0.881 µM; in [5], more than 10 µM; in test [6], 458 nM. The Ki in test [7] was more than 10 µM; in [8], more than 10 µM; in test [9] it was more than 10 µM; in [10] it was 42 nM; in test [11], 31.8 nM; in [12], more than 10 µM. For the same molecule, the Ki in [13] was 2580 nM; in [14] it was more than 10 µM.
Take `CNC(C)Cc1ccc2c(c1)OCO2` (stereo unspecified) [mdma]: the Ki in [1] was more than 10000 nM; in test [2], more than 10 µM; in [3] it was more than 10000 nM; in test [4], more than 10 µM; in test [5] it was more than 10 µM; in test [6] it was 2530 nM. Also, the Ki was more than 10 µM in test [7]; more than 10 µM in test [8]; 6.33 µM in test [9]; 500 nM in test [10]; more than 10000 nM in test [11]; more than 10 µM in test [12]. Further, the Ki was more than 10000 nM in test [13] and more than 10 µM in test [14].
With “CAS_82830-44-2::(2R)-1-(4-iodo-2,5-dimethoxyphenyl)propan-2-amine::DOI,(-)::US20250270173, Compound DOI”, the Ki in [1] is 2110 nM; in test [2], more than 10 µM; in [3], 1010 nM; in test [4], more than 10 µM; in test [5], 0.591 µM; in test [6], 73.7 nM. The Ki in test [7] is more than 10 µM; in test [8], more than 10 µM; in test [9], 2.21 µM; in test [10] it was 336 nM; in test [11], 2220 nM; in test [12] it was 9.69 µM. In addition, the Ki in test [13] was 165 nM; in test [14], more than 10 µM.
